Reference: patent US12419887B2, “Transitioning patients treated for pulmonary arterial hypertension to selexipag” (ACTELION PHARMACEUTICALS LTD, priority 2019, dated 2025)

Tests used:
Assay type in all cases: in vivo, human
[1] = system: patients being treated for pulmonary arterial hypertension transitioned from a non-selexipag PPA; test: Change in WHO/NYHA functional class (FC) from baseline after transition to selexipag; conditions: for patients with worsened FC / patients with improved FC: all transitioned patients
Excerpt: (§1) In this example, the effectiveness of transitioning patients from a non-selexipag PPA to selexipag was investigated. Patients were followed for up to 18 months and data were collected at the time of initiation, enrollment, and approximately quarterly post-enrollment. Eligible patients were aged ≥18 years and either newly initiated on selexipag at the time of enrollment or were already receiving selexipag and have a documented titration regimen.
(§2) “Transitioned patients” were defined as patients who were (i) taking a non-selexipag PPA for ≥30 days at the time of selexipag initiation who stopped the initial agent ≤7 days before selexipag initiation; or (ii) continued taking the initial, non-selexipag PPA when they initiated selexipag and gradually transitioned off that agent.
(§3) Assessments performed closest to selexipag initiation were considered to be “baseline.” Data at 6 and 12 months post-baseline were as follows (i) the window for the 6-month measurements was >0 months and <9 months; (ii) the window for the 12-month measurements was ≥9 months and <16 months; and (iii) the assessment closest to the 6- or 12-month time point, respectively, was used.

[2] = system: patients being treated for pulmonary arterial hypertension transitioned from a non-selexipag PPA; test: Change from baseline in 6-minute walk distance (6MWD) after transition to selexipag
Excerpt: as §1, §2, §3

[3] = system: patients being treated for pulmonary arterial hypertension transitioned from a non-selexipag PPA; test: Change from baseline in assessed risk category after transition to selexipag
Excerpt: as §3
Risk categories were assigned. Seven variables were used: World Health Organization or New York Heart Association functional class (FC), 6-minute walk distance (6MWD), N-terminal prohormone of brain natriuretic peptide (NT-proBNP), brain natriuretic peptide (BNP), and hemodynamic parameters, including right atrial pressure, cardiac index, and mixed venous oxygen saturation. If both NT-proBNP and BNP were available, the risk classification of each value was averaged together and the mean was used in the risk categorization. Thresholds from the 2015 European Society of Cardiology/European Respiratory Society Guidelines were applied to assign a risk score for each available variable: 1=low risk, 2=intermediate risk, and 3=high risk. The risk score from all available variables was then averaged. The resulting number was rounded to the nearest integer to produce the patient's individual risk category: 1=low risk, 2=intermediate risk, and 3=high risk

[4] = system: patients being treated for pulmonary arterial hypertension; test: Safety: selexipag discontinuation and adverse events leading to discontinuation
Excerpt: as §1
AEs known to be associated with the selexipag mechanism of action were only reported if they were serious, led to selexipag discontinuation, or reflected an unusual pattern of severity.
Safety data were collected only for the period during which patients were enrolled. The median total duration of selexipag treatment on study was 13.7 months (IQR: 9.1-17.8 months) for all patients: 13.8 months (IQR: 9.2-17.8 months) for patients in the inhaled/oral group and 13.4 months (IQR: 6.8-15.9 months) for patients in the parenteral group.

[5] = transitioned from parenteral non-selexipag PPA, 6 months
[6] = transitioned from oral/inhaled non-selexipag PPA, 6 months
[7] = transitioned from oral/inhaled non-selexipag PPA, 12 months
[8] = transitioned from parenteral non-selexipag PPA, 12 months

Structure (SMILES): CC(C)N(CCCCOCC(=O)NS(C)(=O)=O)c1cnc(-c2ccccc2)c(-c2ccccc2)n1 [selexipag, 2-{4-[(5,6-diphenylpyrazin-2-yl)(propan-2-yl)amino]butoxy}-N-(methanesulfonyl)acetamide]
- disease course in the majority of patients as indicated by FC, 6MWD, and risk status ([1]; 12 months after transitioning, regardless of type of prior non-selexipag PPA): unchanged or improved disease
- patients with worsened FC ([1]; 6 months vs baseline): none
- patients with improved FC ([1]; 6 months vs baseline, data for 46% of patients): 27%
- patients with worsened FC ([1]; 12 months vs baseline): 10%
- patients with improved FC ([1]; 12 months vs baseline, data for 70% of patients): 21%
- FC versus baseline ([1]; transitioned patients, at 6 and 12 months): maintained in the majority of transitioned patients
- 6MWD versus baseline ([2]; all patients, 12 months): modest increase in 6MWD
- 6MWD versus baseline ([2]; transitioned from oral/inhaled PPA, 6 months): increased 6MWD
- median 6MWD versus baseline [2, 5]: decreased median 6MWD from baseline
- patients with improved risk status [3, 6]: 21%
- patients with maintained risk status [3, 6]: 63%
- patients with worsened risk status [3, 6]: 17%
- patients with improved FC (in the risk status paragraph) [3, 7]: 24%
- patients with maintained risk status [3, 7]: 61%
- patients with worsened FC (in the risk status paragraph) [3, 7]: 15%
- patients with improved risk status [3, 5]: 27%
- patients with maintained or improved risk status [3, 5]: 67%
- patients with maintained risk status [3, 5]: 40%
- patients with worsened risk status [3, 5]: 33%
- patients with improved risk status [3, 8]: 29%
- patients with maintained or improved risk status [3, 8]: 86%
- patients with maintained risk status [3, 8]: 57%
- patients with worsened risk status [3, 8]: 14%
- AE leading to selexipag discontinuation: Acute respiratory failure, % ([4]; All Patients (N = 56)): (1.8) %
- AE leading to selexipag discontinuation: Arthralgia, % ([4]; All Patients (N = 56)): (1.8) %
- AE leading to selexipag discontinuation: Cardiac arrest, % ([4]; All Patients (N = 56)): (1.8) %
- AE leading to selexipag discontinuation: Cardiac disorders, % ([4]; All Patients (N = 56)): (7.1) %
- AE leading to selexipag discontinuation: Cardiac failure congestive, % ([4]; All Patients (N = 56)): (1.8) %
- AE leading to selexipag discontinuation: Fluid overload, % ([4]; All Patients (N = 56)): (1.8) %
- AE leading to selexipag discontinuation: Headache, % ([4]; All Patients (N = 56)): (1.8) %
- AE leading to selexipag discontinuation: Investigations, % (Right ventricular systolic pressure) ([4]; All Patients (N = 56)): (1.8) %
- AE leading to selexipag discontinuation: Investigations, n (Right ventricular systolic pressure) ([4]; All Patients (N = 56)): 1 n
- AE leading to selexipag discontinuation: Musculoskeletal and connective tissue disorders, % ([4]; All Patients (N = 56)): (1.8) %
- AE leading to selexipag discontinuation: Nervous system disorders, % ([4]; All Patients (N = 56)): (1.8) %
- AE leading to selexipag discontinuation: Respiratory failure, % ([4]; All Patients (N = 56)): (1.8) %
- AE leading to selexipag discontinuation: Respiratory, thoracic and mediastinal disorders, % ([4]; All Patients (N = 56)): (8.9) %
- AE leading to selexipag discontinuation: Right ventricular failure, % ([4]; All Patients (N = 56)): (1.8) %
- AE leading to selexipag discontinuation: Right ventricular systolic pressure increased, % ([4]; All Patients (N = 56)): (1.8) %
- AE leading to selexipag discontinuation: Worsening pulmonary hypertension, % ([4]; All Patients (N = 56)): (5.4) %
- AE leading to selexipag discontinuation: Acute respiratory failure, % ([4]; Inhaled/Oral (n = 36)): 2.8%
- AE leading to selexipag discontinuation: Arthralgia, % ([4]; Inhaled/Oral (n = 36)): 2.8%
- AE leading to selexipag discontinuation: Cardiac arrest, % ([4]; Inhaled/Oral (n = 36)): 2.8%
- AE leading to selexipag discontinuation: Cardiac disorders, % ([4]; Inhaled/Oral (n = 36)): 5.6%
- AE leading to selexipag discontinuation: Cardiac failure congestive, % ([4]; Inhaled/Oral (n = 36)): 2.8%
- AE leading to selexipag discontinuation: Headache, % ([4]; Inhaled/Oral (n = 36)): 2.8%
- AE leading to selexipag discontinuation: Investigations, n (Right ventricular systolic pressure) ([4]; Inhaled/Oral (n = 36)): 0 n
- AE leading to selexipag discontinuation: Musculoskeletal and connective tissue disorders, % ([4]; Inhaled/Oral (n = 36)): 2.8%
- AE leading to selexipag discontinuation: Nervous system disorders, % ([4]; Inhaled/Oral (n = 36)): 2.8%
- AE leading to selexipag discontinuation: Patients with at least one AE, % ([4]; Inhaled/Oral (n = 36)): 16.7%
- AE leading to selexipag discontinuation: Respiratory failure, % ([4]; Inhaled/Oral (n = 36)): 2.8%
- AE leading to selexipag discontinuation: Respiratory, thoracic and mediastinal disorders, % ([4]; Inhaled/Oral (n = 36)): 5.6%
- AE leading to selexipag discontinuation: Cardiac disorders, % ([4]; Parenteral (n = 20)): (10.0) %
- AE leading to selexipag discontinuation: Fluid overload, % ([4]; Parenteral (n = 20)): (5.0) %
- AE leading to selexipag discontinuation: Investigations, % (Right ventricular systolic pressure) ([4]; Parenteral (n = 20)): (5.0) %
- AE leading to selexipag discontinuation: Investigations, n (Right ventricular systolic pressure) ([4]; Parenteral (n = 20)): 1 n
- AE leading to selexipag discontinuation: Respiratory, thoracic and mediastinal disorders, % ([4]; Parenteral (n = 20)): (15.0) %
- AE leading to selexipag discontinuation: Right ventricular failure, % ([4]; Parenteral (n = 20)): (5.0) %
- AE leading to selexipag discontinuation: Right ventricular systolic pressure increased, % ([4]; Parenteral (n = 20)): (5.0) %
- AE leading to selexipag discontinuation: Worsening pulmonary hypertension, % ([4]; Parenteral (n = 20)): (15.0) %
- patients who discontinued selexipag ([4]; non-transitioned patients (65 of 194)): 33.5%
- patients who discontinued selexipag ([4]; transitioned patients (16 of 56)): 28.6%
